Test results published in paper PMC3264828 (European Journal of Medicinal Chemistry, 2011).

Tests used:
[1] = target: D1-like receptors (Sus scrofa, UniProt P50130); experiment: Competition binding with [3H]SCH-23390 in porcine striatal homogenates; details: porcine striatal preparations; for decrease in D1 affinity compared to 2: relative to DOX (2)
[2] = target: D1 dopamine receptor mutant L190A (Homo sapiens, UniProt P21728, L190A); experiment: Mutagenesis experiments of the D1 dopamine receptor; type: binding; details: residue in extracellular loop 2; to be published elsewhere
Sequence of D1 dopamine receptor mutant L190A (P21728 whole entry L190A): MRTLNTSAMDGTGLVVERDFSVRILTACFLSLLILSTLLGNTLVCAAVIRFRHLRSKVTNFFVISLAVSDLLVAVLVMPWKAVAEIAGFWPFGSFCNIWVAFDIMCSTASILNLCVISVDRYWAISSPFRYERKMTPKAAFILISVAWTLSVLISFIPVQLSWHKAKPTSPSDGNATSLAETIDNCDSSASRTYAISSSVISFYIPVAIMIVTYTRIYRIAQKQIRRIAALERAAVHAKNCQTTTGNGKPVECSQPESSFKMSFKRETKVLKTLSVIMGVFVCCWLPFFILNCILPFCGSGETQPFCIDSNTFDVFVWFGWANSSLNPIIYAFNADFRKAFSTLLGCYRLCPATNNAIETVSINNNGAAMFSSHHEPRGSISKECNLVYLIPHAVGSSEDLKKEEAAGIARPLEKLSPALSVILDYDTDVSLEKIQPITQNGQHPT

[3] = system: D1-like receptors; details: cited from earlier work
[4] = system: D1 receptor; details: cited from earlier work
[5] = system: in vivo model of Parkinson's disease; details: African green monkeys; cited from earlier work
[6] = system: prefrontal cortex; details: cited from earlier work
[7] = system: aged monkeys; details: cited from earlier work
[8] = system: D1; details: 2-substituted DHX analogues; cited from earlier work

Sequence of D1-like receptors (Sus scrofa, UniProt P50130) (P50130 whole entry): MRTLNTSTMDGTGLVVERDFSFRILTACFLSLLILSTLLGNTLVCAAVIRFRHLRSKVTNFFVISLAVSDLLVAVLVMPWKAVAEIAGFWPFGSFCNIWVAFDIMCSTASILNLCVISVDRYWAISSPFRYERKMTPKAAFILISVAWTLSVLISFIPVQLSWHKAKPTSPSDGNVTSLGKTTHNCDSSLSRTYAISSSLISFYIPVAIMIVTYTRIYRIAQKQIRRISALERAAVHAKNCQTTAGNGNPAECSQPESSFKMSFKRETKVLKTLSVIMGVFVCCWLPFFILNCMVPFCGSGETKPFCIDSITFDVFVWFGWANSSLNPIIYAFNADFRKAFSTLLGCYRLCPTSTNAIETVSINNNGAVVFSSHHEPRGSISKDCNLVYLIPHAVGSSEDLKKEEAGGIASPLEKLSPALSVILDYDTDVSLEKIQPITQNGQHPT

Cc1ccc2c(c1)[C@@H]1c3cc(O)c(O)cc3OC[C@H]1NC2.Cl (racemic) [5a, (±)-Trans-11-methyl-2,3-dihydroxy-6a,7,8,12b-tetrahydro-6H-chromeno[3,4-c]isoquinoline hydrobromide]
decrease in D1 affinity compared to 2 [1]: nearly six-fold decrease | affinity at mutant L190A of the D1 dopamine receptor [2]: significantly increased affinity

Cl.Oc1cc2c(cc1O)[C@H]1c3cc(C(F)(F)F)ccc3CN[C@@H]1CO2 (racemic) [5d, (±)-Trans-2,3-dihydroxy-11-trifluoromethyl-6a,7,8,12b-tetrahydro-6H-chromeno[3,4-c]isoquinoline hydrochloride]
decrease in D1 affinity compared to the methyl substituted compound 5a ([1]; relative to 5a): almost four-fold decrease | decrease in D1 affinity compared to 2 [1]: 22 fold

Oc1cc2c(cc1O)[C@H]1c3ccccc3CN[C@@H]1CC2 (relative stereo) [compound 1, trans-10,11-dihydroxy-5,6,6a,7,8,12b-hexahydrobenzo[a]phenanthridine]
affinity for D1-like receptors over D2-like receptors [3]: ten-fold higher affinity | dopamine D1 agonist character [4]: potent dopamine D1 full agonist | therapeutic potential in an in vivo model of Parkinson's disease [5]: significant therapeutic potential | blood flow in the prefrontal cortex [6]: increase blood flow in the prefrontal cortex | working memory [7]: improve working memory in aged monkeys

Oc1cc2c(cc1O)C1c3ccccc3CNC1CO2 (single isomer, unassigned; (+)) [(+)-2]
efficacy for activation of the D1 receptor ([4]; compared with dopamine): higher efficacy than dopamine

Cc1ccc2c(c1)[C@@H]1c3cc(O)c(O)cc3CC[C@H]1NC2 [compound 3]
affinity at mutant L190A of the D1 dopamine receptor [2]: but not for 3 | D1 affinity in comparison to DHX [8]: did not significantly reduce the affinity

CCc1ccc2c(c1)[C@@H]1c3cc(O)c(O)cc3CC[C@H]1NC2 [compound 4]
D1 affinity in comparison to DHX [8]: affinity lower than the unsubstituted compound
